The values below come from patent publication US8420692B1, “Heterocyclic and carbonate derivatives of NDGA and their use as new anti-HIV and anti-cancer agents” (The Johns Hopkins University, priority 2006, dated 2013).

One series deals with COS cells. Description: Growth inhibition of untransfected COS cells. Type of series: cell-based. The note with it: ≦1 μM, FIG. 9. The procedure:
FIG. 9: Inhibition of HIV Tat-Regulated transactivation by Compound 5b P4N. The COS cells were co-transfected with a Tat-producing plasmid and a plasmid containing the HIV LTR linked to the SeAP reporter gene. Transfected cells were treated with various concentrations of 5b P4N. After 48 h, aliquots of media were removed and analysis of SeAP activity was performed. The percent inhibition of SeAP activity by 5b P4N ? was calculated in comparison with the percent of growth inhibition of untransfected COS cells by P4N ?

Series [1] concerns human liver cancer line Hep3B. Description: MTT-based cytotoxicity / proliferation assay, Hep3B. Type of series: cell-based. The procedure: The cytotoxicity of P4N against Vero cells and human cancer cells HEP3B, HT29 and MCF7 was analyzed using an MTT [3-(4,5-dimethylthiazol-2-yl)-2,5-diphenyltetrazolium bromide]-based assay (Sigma). The absorbance of OD570 was a measurement of formazon crystals solubilized in DMSO from metabolically active cells. Procedures were discussed in Huang R C C, et al. in Antiviral Res 58, 57-64 2003.^10
We have previously shown that M4N arrests tumor cells growth at G2-M phase of the cell cycle by reducing the level of Cdc2 protein and kinase activity,^17,18 and induces apoptosis by suppressing survivin gene expression and protein stability and activating the mitochondrial apoptosis pathway.^17 M4N is able to reverse the multidrug resistance by inhibiting the Sp1-regulated MDR1 gene expression and preventing the synthesis of p-glycoprotein (Pgp).^24 To investigate the effect of water soluble NDGA derivative P4N on growth of the transformed cells, four cell lines, Vero cell (African green monkey kidney cells), human liver cancer line Hep3B, colon cancer cell line HT29, and human breast cancer line MCF-7 were selected for testing. The Vero cell line is aneuploid.

For series [2], the system named is Sp1 cognate binding site DNA (dsOLIGOsp). Description: 1D NMR titration of the Sp1 cognate binding site. The note with it: FIG. 3. An excerpt:
FIG. 3: 1D 1H NMR spectra of free DNA, free P4N and 1:1 molar ratio DNA:P4N. The resonances with the largest chemical shift perturbation are indicated
The titration of the Sp1 cognate binding site with P4N was further studied by 1D NMR (FIG. 3). […] Changes in the chemical shifts and the line-widths of both the DNA and the drug indicate structural perturbations of the DNA upon titration with P4N. […] This is reflected in the split of the well resolved resonances of the carbon-nitrogen ring CH2 protons (which lie in an area of the spectrum that is free of DNA peaks). As shown on both FIG. 3 and FIG. 4 the largest perturbations of the P4N chemical shifts induced upon binding are those of the CH3 protons, aromatic protons and the carbon-nitrogen ring CH2 protons. […] Binding of Sp1 to dsOLIGOsp and binding of P4N to dsOLIGOsp are both reversible as shown in a competitive band-shift analysis (FIG. 6).

pIC50: −log10 of the molar value. Where a name gives a salt, the structure may show the parent alone. Bounds are passed on as bounds.

What is called pIC50 is the negative decadic logarithm of the IC50, by convention in mol/L. For `C[C@H](Cc1ccc(OCCN2CCCCC2)c(OCCN2CCCCC2)c1)[C@@H](C)Cc1ccc(OCCN2CCCCC2)c(OCCN2CCCCC2)c1` [Compound 5b, meso-2,3-Dimethyl-1,4-bis(3,4-[2-(piperidino)ethoxyphenyl])butane Tetrakishydrochloride Salt], in the series with COS cells, the “Effect on the growth of the cos cells” value is given as “no effect”. The pIC50 in series [1] (48 hrs, 37° C.) is 5.70. The “Concentration that effectively eliminates growth of tumor cells” value in series [1] (Hep3B, FIG. 11) was < 5 µM. For the same compound, the “Binding to the DNA (1D NMR titration)” value in series [2] was “micro-molar range”.
